The results in this text go back to patent US7560241B2, “Methods and compositions for modulating mitochondrial aldehyde dehydrogenase-2” (The Board of Trustees of the Leland Stanford Junior …, priority 2003, dated 2009).

Assay [1] relates to rat hearts. Put plainly: ischemia/reperfusion damage in ex vivo Langendorff rat hearts, infarct size by TTC staining. Particulars: for ischemic damage by TTC staining of heart sections: ischemia/reperfusion.
Assay [2] relates to AldDH2. Put plainly: aldehyde dehydrogenase enzymatic activity in homogenates of ex vivo Langendorff rat hearts (NADH at 340 nm, acetaldehyde substrate). In kind it is biochemical. The settings on record: for inhibition of AldDH2: during ischemia reperfusion; for rate of NADH accumulation (absorbance at 340 nm), FIG. 4: ethanol before ischemia vs I/R alone or normoxia, cyanamide in ethanol treated ischemic or normoxic samples. As for the experimental part: Ex vivo Langendorff preparation of rat hearts were used as a model to assess the damage incurred by no-flow ischemia and reperfusion injury. This is an experimental model that mimics the clinical situation of myocardial infarction in patients. Rat hearts were excised and cannulated on a Langendorff apparatus via the aorta. Retrograde perfusion was carried out using the standard oxygenated Kreb-Hensleit buffer maintained at 37° C. All hearts were stabilized by an initial 5- to 10-minute perfusion period followed by delivery of different cardioprotective agents or AldDH2 inhibitors for 10-30 minutes, depending on the reagent. […] Ischemia was then introduced by 25 minutes of no-flow followed by 60 minutes of reperfusion. The degree of ischemia/reperfusion damage was measured by two independent commonly accepted parameters. […] In another assay, creatine phosphate kinase activity was measured from reperfusate of each heart collected during reperfusion. […] Homogenates from each heart was also obtained from a separate section of the identical sample and analyzed for aldehyde dehydrogenase enzymatic activity. Enzymatic activity was determined by a standard spectrophotometric method described above using acetaldehyde as the substrate and NAD^+ as a cofactor. FIG. 2: An experimental protocol using an ex vivo Langendorff heart. Rat hearts were excised and cannulated on a Langendorff apparatus via aorta. Retrograde perfusion was carried out using the standard oxygenated Kreb-Hensleit buffer maintained at 37° C. […] Peptides used were a selective activator (εV1-7) or inhibitor (εV1-2) or epsilon protein kinase C (εPKC). Ischemia was then introduced by 25 minutes of no-flow followed by 60 minutes of reperfusion. […] FIG. 3: Formation of acetic acid from acetaldehyde by action of aldehyde dehydrogenase. Enzymatic activity of aldehyde dehydrogenase is determined by a standard photospectrometric method using acetaldehyde as a substrate. In this reaction, aldehyde dehydrogenase catalyzes the oxidation of acetaldehyde to acetic acid. Concomitantly, NAD^+ is reduced to NADH resulting in an increase in absorbance at 340 nm wavelength in a photospectrometer. The rate of NADH increase is proportional to the enzymatic activity of aldehyde dehydrogenase.

Molecules are shown by their SMILES. “And” between values parts separate entries of the source, which are not always exact repeats. Identical values can stand only once. “Also recorded” adds a separate entry of the source. Like-named read-outs stand apart in the source and are kept apart here.

For `O=[N+]([O-])OCC(CO[N+](=O)[O-])O[N+](=O)[O-]` [Nitroglycerin, nitroglycerin], in assay [1], the “increase in infarct damage” value is 36% and 31%; the “increase in ischemia/reperfusion damage as measured by infarct size” value amounted to 29%.

Regarding `N#CN` [cyanamide], the “increase in ischemia/reperfusion damage as measured by infarct size” value in assay [1] (agent alone, compared to no treatment control) stood at 49%. The “increase in infarct damage” value in assay [1] (in samples treated with ethanol) is reported as 62%; in assay [1] (in samples treated with εPKC agonist peptide), 56%. In addition, the “ischemic damage by TTC staining of heart sections” value in assay [1] (compared to control heart) was “eliminates the protective effect of ethanol and leads to an even greater damage as compared to control”. Also, in assay [1] (normoxic, compared to control heart), the “cardiac damage under normoxic condition” value is “does not produce any significantly greater damage than the control heart; also recorded: did not lead to any greater cardiac damage”. Besides, the “effect on induction of AldDH2 activity by ethanol or εPKC agonist peptide” value in assay [2] (co-treatment, ischemia/reperfusion) is “effect of induction is also greatly abolished”. Besides, the “inhibition of AldDH2” value in assay [2] (cyanamide treatment in the absence of ethanol or peptide) is given as 63%; in assay [2] (cyanamide treatment in the presence of ethanol), 64%; in assay [2] (cyanamide treatment in the presence of peptide), 74%. Moreover, in assay [2], the “rate of NADH accumulation (absorbance at 340 nm), FIG. 4” value is “reduction of NADH accumulation”. Besides, the “AldDH2 activity in normoxic heart samples” value in assay [2] (normoxic) is on record as “inhibition of AldDH2 activity”.

For the compound `CCO` [ethanol], the “ischemic damage by TTC staining of heart sections” value in assay [1] (compared to control heart) was “leads to cardioprotection”. Besides, the “increase in AldHD2 activity” value in assay [2] (as compared to ischemia/reperfusion control, ethanol 50 mM for 10 minutes, peptide 1 μM) is recorded as 25%. For the same compound, in assay [2], the “rate of NADH accumulation (absorbance at 340 nm), FIG. 4” value was “increase in the rate of absorbance”.
